Where a name gives a salt, the structure may show the parent alone. Bridge positions count the residues as written; N and C are the ends. Square brackets hold non-standard residues; d marks the D form. Peptide text beside a SMILES is read from it. * marks the point of attachment. X1 = CC[C@H](C)CCCCC(=O)*; Dab = NCC[C@H](N)C(=O)O

By MIC90 is commonly meant the lowest concentration that inhibits either 90% of growth or 90% of the strains tested, depending on the study.

The test system of data set [1] is gram-negative pathogens. The following applies: previous studies; cited from earlier work. The procedure:
To determine whether these targets are achieved in humans, the PTAs for the 200 mg q24h dose were calculated. It is clear that the degree of protein binding is essential herein and more clarity on the protein binding in human plasma is needed before an optimal dosing regimen can be recommended, since for a highly protein-bound drug a small error on the fu would yield important PTA differences.

Data set [2] deals with K. pneumoniae isolates. Briefly: Dose-response study, thigh infection model, summary over K. pneumoniae isolates. The following applies: mouse thigh infection. The class given is in vivo, Klebsiella pneumoniae. As for the experimental part: (§1) Experiments were carried out in the Erasmus Laboratory Animal Science Centre in Rotterdam, The Netherlands in accordance with the EU Animal Directive 2010/63/EU 2010 directive[14] (licence number AVD101002016702) as described before,[15] with approval of the institutional Animal Welfare Body. Outbred female CD-1 mice obtained from Charles River Germany, weighing 20–25 g, 7–8 weeks old, were used in the experiments. The mice were housed under standard conditions with drink and feed supplied ad libitum.
Mice were rendered neutropenic by intraperitoneal injection of cyclophosphamide of 150 and 100 mg/kg, 4 days and 1 day before infection, respectively. On the day of infection, an overnight culture of the bacteria was diluted in fresh CAMHB and incubated at 37°C for 1 or 2 h depending on the growth rate of the strain. After incubation the inoculum was diluted in CAMHB or saline for the thigh and lung infection model, respectively, in order to obtain approximately 5.0 × 10^7 cfu/mL. Mice were then infected intramuscularly in each thigh (thigh infection model) or intranasally under isoflurane anaesthesia (lung infection model), with 0.05 mL of inoculum containing approximately 2.5 × 10^6 bacteria. Analgesia was given in the form of buprenorphine directly after infection, every 12 h.
(§2) For dose–response studies, a 6 hourly dosing regimen of 1–32 mg/kg was studied in the thigh infection model. Mice were infected with E. coli […], 15, 51 or 71 or K. pneumoniae ATCC 43816, 17, 58 or 74.
(§3) Animals were humanely euthanized 24 h (t = 24 h) after the first dose, unless the welfare of the animals necessitated earlier termination, following animal welfare regulations. Excised thighs were transferred to a pre-cooled 14 mL polypropylene tube containing 2 mL of PBS and were homogenized using a T25 ULTRA-TURRAX (IKA-Werke GmbH & Co, Staufen, Germany). A 10-fold dilution series was prepared and 3 × 10 μL was plated per dilution. The following day, colonies were counted and the number of cfu per thigh was calculated.
The drug effect was determined by the difference between the log10 cfu values at t = 0 h (mean value of two mice) and t = 24 h (value of individual mice) expressed as Δlog10 cfu. The fAUC/MIC, fCmax/MIC and %fT>MIC were determined based on the simulated time–concentration profiles over 24 h as derived in MicLab 2.71 (MEDIMATICS, Maastricht, The Netherlands) using 200 points per dosing interval.
(§4) A sigmoid maximum effect (Emax) model was fitted to the PK/PD index versus Δlog10 cfu data by non-linear regression, and static or a 1 log or 2 log kill effect were determined using GraphPad Prism 8.0 (GraphPad, Inc., San Diego, CA, USA). […]

A short description of data set [3]: Tolerability of subcutaneous dosing in infected neutropenic mice. The class given is in vivo. As for the experimental part:
Dose-fractionation studies were performed for E. coli ATCC 25922 and K. pneumoniae 104 in the thigh infection model. Two hours after infection, treatment with polymyxin B was administered subcutaneously over 24 h at the following dosing regimens: 4–128 mg/kg q6h [total daily dose (TDD) 16–512 mg/kg]; 8–256 mg/kg q12h (TDD 16–512 mg/kg); 256–512 mg/kg q24h (TDD 256–512 mg/kg).
as §2, §3

Data set [4] deals with four E. coli and four K. pneumoniae strains. Briefly: Dose-response study, thigh infection model, summary over all eight isolates. The class given is in vivo, Escherichia coli, Klebsiella pneumoniae. The following applies: q6h dosing, mouse thigh infection. The procedure: as §1
Mice were rendered neutropenic by intraperitoneal injection of cyclophosphamide of 150 and 100 mg/kg, 4 days and 1 day before infection, respectively. […]
Animals were humanely euthanized 24 h (t = 24 h) after the first dose, unless the welfare of the animals necessitated earlier termination, following animal welfare regulations. […] The following day, colonies were counted and the number of cfu per thigh was calculated.
The drug effect was determined by the difference between the log10 cfu values at t = 0 h (mean value of two mice) and t = 24 h (value of individual mice) expressed as Δlog10 cfu. […]
as §4

On to `CC[C@H](C)CCCCC(=O)N[C@@H](CCN)C(=O)N[C@H](C(=O)N[C@@H](CCN)C(=O)N[C@H]1CCNC(=O)[C@H]([C@@H](C)O)NC(=O)[C@H](CCN)NC(=O)[C@H](CCN)NC(=O)[C@H](CC(C)C)NC(=O)[C@@H](Cc2ccccc2)NC(=O)[C@H](CCN)NC1=O)[C@@H](C)O` [polymyxin B, Polymyxin B sulphate salt] (X1-[Dab]T[Dab][Dab][Dab][dF]L[Dab][Dab]T; lactam 4-C), for which, in data set [1], the MIC90 is 0.5 to 1 µg/mL. Also, in data set [2] (K. pneumoniae isolates), the “Isolates in which 1 log kill was found” value is recorded as 1/4. Besides, the “Target value of fAUC/MIC, static effect, average” value in data set [2] (average of four K. pneumoniae isolates, q6h) was 22.4. Also, the “Target value of fAUC/MIC, static effect, median” value in data set [2] (median of four K. pneumoniae isolates, q6h) came to 11.6. In addition, the “Target value of fAUC/MIC, static effect, range” value in data set [2] (range over four K. pneumoniae isolates, q6h) is 5.9–60.5. The “Mice in which the last (fourth) administration was not tolerated” value in data set [3] (32 mg/kg q6h (TDD 128 mg/kg) s.c.) is reported as 2/4. In addition, in data set [3] (doses >64 mg/kg s.c., dose fractionation studies, neutropenic infected mice), the Tolerability result is given as “not tolerated”. Moreover, in data set [4], the “Isolates in which a 1 log kill effect was observed” value is 3/8 and the “Isolates in which a 2 log kill effect was observed” value is 1/8.
